The record followed here is patent US8524744B2, “Arylamine ketones, their preparation methods, the pharmaceutical composition containing them and their use” (Institute of Mataria Medica, Chinese Academy of Medical …, priority 2004, dated 2013).

Counter-ions that a name gives are not always drawn.

Experiment [1] has as its system mouse paw swelling induced by carrageenan. In words: mouse paw swelling induced by carrageenan. Conditions: orally, 50 mg·kg^−1, Kunming mice. The class given is in vivo. Here is the method: Kunming mice (male, 18-22 g) were randomly divided into two groups (treatment and control) with 10 animals for each group. The animals were orally administrated with compounds or solvent, respectively. 1 hr later, 50 μl of 1% carrageenan was intracutaneously injected into the sole of right posterior foot. After 4 hr the animals were sacrificed by displacing cervical vertebra. The two paws were cut off at ankle joint and weighed. The swelling was evaluated by the difference of the weights of two paws.

Experiment [2] deals with mouse ear edema induced by croton oil. In words: mouse ear edema induced by croton oil. The class given is in vivo. The following applies: orally, 50 mg·kg^−1, Kunming mice. Here is the method: Kuming mice (male, 18-22 g) were randomly divided into two groups (treatment and control) with 10 animals for each group. The animals were orally administrated with compounds or solvent, respectively. 1 hr later, 50 μl of 2% croton oil was smeared on the two sides of mouse left ear. After 4 hr the mice were sacrificed by cervical vertebra displacement. The two ears were cut off and the central sections were excised using a punch with a diameter of 8 mm and weighed. Edema was quantified as the weight difference between the two sections.

Experiment [3] deals with polymorphonuclear leucocytes from rat pleural cavity. Kind of experiment: release of β-glucuronidase by polymorphonuclear leucocytes from rat pleural cavity in vitro (PAF as irritant). Type of experiment: cell-based. The method, boiled down:
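Carrageenan-elicited pleural PMNs from Wistar rats (2.5×10^6 cells/ml, Dulbecco's buffer) were incubated with compound 15 min at 37° C, then cytochalasin B 5 min, then PAF 5 min. β-Glucuronidase in supernatant was assayed with phenolphthalein-glucuronic acid, 18 h at 37° C, OD 550 nm after NaOH.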

Experiment [4] has as its system adjuvant arthritis in rat. In words: adjuvant arthritis in rat (therapeutic effect). Type of experiment: in vivo. The following applies: orally 100 mg·kg^−1 during 19-25th day, SD rats. Here is the method:
SD rats (male, 190±10 g) were randomly divided into two groups (treatment and control) with 10 animals for each group. At 0 day 0.1 ml of Freund's complete adjuvant was intracutaneously injected into the right posterior foot. For therapeutic experiment the animals were orally administrated with the compound or solvent during 19-25th day. The perimeter of two ankle joint was measured and the inflammation of anterior foot, ear and tail were judged by scoring for every 3 days until 28 th day.

In experiment [5] the test system is production of NO in macrophages from mouse peritoneal cavity. In words: production of NO in macrophages from mouse peritoneal cavity (LPS and PAF). The class given is cell-based. The following applies: Macrophage, costimulated by LPS (1×10^−9 mol·L^−1) and PAF (1×10^−6 mol·L^−1), 24 hr, read-out: IC50, inhibition of the production of NO. The procedure:
4% of sodium mercaptoethanol was injected into C57BL/6 mouse peritoneal cavity to induce macrophages. The cells in peritoneal cavity were collected after injection for 3-4 days. 500 μl of cells were inoculated in the well of 24 wells plate which was placed in the CO2 incubator at 37° C. for 2.5 hr to make the cells adherent. The cells were rinsed by 1640 culture media. 495 μl of 1640 media containing irritant and 5 μl the compound or solvent were added into each well. The plate was incubated for 24 hr. The supernatant was taken out and mixed with the same volume of Griess agent. The reaction fluid was kept at room temperature for 10 min and the optical density was measured at 550 nm. The numbers read was transferred into the content of NO.

The subject of experiment [6] is IgG in serum. In words: IgG (antibody for anti-type II collagen) in serum of rat with arthritis induced by type II collagen. The class given is in vivo. The following applies: Dose 100 mg · kg^−1 × 13 d, orally. Here is the method: (§1) 0.1 ml of type II H collagen (2 mg·ml^−1) was intracutaneously injected into the hind foot of Wistar rat (male, 100±10 g) (d0). Seven days later 0.1 ml of type II collagen was intracutaneously injected into the root of tail. At 19th day (d19) the animals inflamed were selected to supply the experiment and randomly divided into two groups. […] The perimeter of the ankle joint of two hind feet, weight of body was measured and the systemic inflammation (including the toes of front and hind feet, ears and tails) was judged by scoring every 3 days. At 41th day 40 μl of 0.2% type II collagen was intracutaneously injected into the right ear. Twenty-four hr later the edema level was evaluated by weighing the ponderance of ear piece (diameter: 8 mm). At 42th day the blood was collected by decapitating. The serum was separated by centrifugating. The contents of antibody for anti-type II collagen, cytokine TNF-α, IL-1β in serum were determined by ELISA kit.

Experiment [7] deals with rat arthritis induced by type II collagen. In words: rat arthritis induced by type II collagen. The class given is in vivo. The following applies: 100 mg · kg^−1 × 13 d, orally, Wistar rat. Here is the method:
as §1

Experiment [8] concerns the target T1, PAF receptors of macrophages from mouse peritoneal cavity (Mus musculus, UniProt Q62035).
T1 construct: The cells in peritoneal cavity were collected after injection for 3-4 days; endogenous in cells; host or cells: adherent peritoneal macrophages of C57BL/6 mice (primary)
Kind of experiment: competitive binding of [3H]-PAF to its receptors of macrophages from mouse peritoneal cavity. The following applies: 4° C, 150 min, read-out: Ki, competition with [3H]-PAF binding. The procedure: 4% of sodium mercaptoethanol was injected into C57BL/6 mouse peritoneal cavity to induce macrophages. The cells in peritoneal cavity were collected after injection for 3-4 days. 500 μl of suspension (5×10^5cells·ml^−1) was inoculated into 24-well culture plate which was placed into the incubator with 5% CO2 at 37° C for 2.5 hr. The non-adherent cells and serum in media were discarded. 490 μl of Tyrode-Hepes solution and 5 μl of [^3H]-PAF (final concentration: 2.8 nmol·L^−1) were added into each well. 5 μl of unlabeled PAF (5 μmol·L^1) was added into the well for the nonspecific binding. The series concentrations of compound were added into the well for the competitive binding and the corresponding volume of solvent was added into the wells for the total binding or the nonspecific binding. The reaction fluid was incubated at 4° C for 150 min and rinsed to wipe off the free labeled ligand. 300 μl of NaOH (0.3 mol·L^−1) was added to lyse the cells. The lysate fluid was transferred into a vial in which 7 ml of scintillation solution was added. The radioactivity strength was measured by scintillation counter.

Experiment [9] has as its system delayed hypersensitivity in rats. In words: delayed hypersensitivity in rats (type II collagen ear challenge). The class given is in vivo, rat. Conditions: Dose 100 mg · kg^−1 × 13 d, orally. Here is the method: as §1

T1 sequence (Q62035 whole entry): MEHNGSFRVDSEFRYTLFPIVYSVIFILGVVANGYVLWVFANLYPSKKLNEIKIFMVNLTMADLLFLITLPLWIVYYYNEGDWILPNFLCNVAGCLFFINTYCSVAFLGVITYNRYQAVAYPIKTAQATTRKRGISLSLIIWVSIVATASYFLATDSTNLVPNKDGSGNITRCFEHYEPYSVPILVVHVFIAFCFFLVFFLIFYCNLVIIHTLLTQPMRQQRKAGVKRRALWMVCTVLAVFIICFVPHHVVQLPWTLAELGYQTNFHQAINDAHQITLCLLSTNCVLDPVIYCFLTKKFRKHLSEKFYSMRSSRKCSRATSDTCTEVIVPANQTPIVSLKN

Consider `CCOC(=O)C1CCN(CCC(=O)/C=C/c2ccc(Cl)cc2)CC1` [Compound 3, 5-[(4-Ethoxycarbonyl)piperidyl]-1-(4-chlorophenyl)-1-penten-3-one hydrochloride], for which the “Inhibition (%) of mouse paw swelling” value in experiment [1] worked out at 32.52%. For the same compound, the “Inhibition (%) of mouse ear edema” value in experiment [2] is 33.52%. For the same compound, the “Inhibition (%) of β-glucuronidase release” value in experiment [3] (Dose 2 × 10^−6 mol · L^−1, Irritant 1 × 10^−7 mol · L^−1) was 142.96%. In addition, the IC50 in experiment [3] (Leucocyte, rat polymorphonuclear leucocytes) was 0.226 nM; in [5] it was 225 nM. The “Inhibition (%) of adjuvant arthritis” value in [4] (21th day) was found to be 31.9%; in experiment [4] (23th day) it was 49.3%; in [4] (25th day), 54.5%; in experiment [4] (27th day) it was 59.3%. Also, in experiment [6], the “Inhibition (%) of production of IgG in serum” value was 38.4%. Further, the “Inhibition (%) Score for systemic inflammation” value in experiment [7] was 52.6%. In addition, the “Inhibition (%) Swelling of left ankle joint” value in experiment [7] is 67.5%. Also, in experiment [7], the “Inhibition (%) Swelling of right ankle joint” value amounted to 68.8%. The Ki in experiment [8] was 4400 nM. Further, the “Inhibition (%) of delayed hypersensitivity” value in [9] came out at 21.2%.

In general, IC50 refers to the concentration needed to halve the response being measured. By Ki is commonly meant the dissociation constant of the complex between target and ligand, obtained from inhibition or displacement.
